Entries after “also recorded” stand apart in the source; their conditions may differ.
Key:
Type in all cases: in vivo
DPP4 [1] = target: T1, DPP4 (Rattus norvegicus, UniProt P14740); assay: Peptide display (RP chromatography + MALDI-MS) of rat plasma: Spearman correlation of peptide/protein signals with inhibitor concentration or before/after change in DPP4 activity; parameters: key to Correlation of mass spectrometric signal with concentration of inhibitor AB & Contr.In. A / Correlation of mass spectrometric signal with concentration of inhibitor Contr.In. C: With positive (pos.) correlation regarding the inhibitor concentration is meant that higher concentrations of inhibitor result in higher concentration of a peptide or protein
T1 construct: from tissue; host or cells: Wistar rats dosed in vivo; activity read in tail-vein plasma
T1 sequence (P14740 whole entry): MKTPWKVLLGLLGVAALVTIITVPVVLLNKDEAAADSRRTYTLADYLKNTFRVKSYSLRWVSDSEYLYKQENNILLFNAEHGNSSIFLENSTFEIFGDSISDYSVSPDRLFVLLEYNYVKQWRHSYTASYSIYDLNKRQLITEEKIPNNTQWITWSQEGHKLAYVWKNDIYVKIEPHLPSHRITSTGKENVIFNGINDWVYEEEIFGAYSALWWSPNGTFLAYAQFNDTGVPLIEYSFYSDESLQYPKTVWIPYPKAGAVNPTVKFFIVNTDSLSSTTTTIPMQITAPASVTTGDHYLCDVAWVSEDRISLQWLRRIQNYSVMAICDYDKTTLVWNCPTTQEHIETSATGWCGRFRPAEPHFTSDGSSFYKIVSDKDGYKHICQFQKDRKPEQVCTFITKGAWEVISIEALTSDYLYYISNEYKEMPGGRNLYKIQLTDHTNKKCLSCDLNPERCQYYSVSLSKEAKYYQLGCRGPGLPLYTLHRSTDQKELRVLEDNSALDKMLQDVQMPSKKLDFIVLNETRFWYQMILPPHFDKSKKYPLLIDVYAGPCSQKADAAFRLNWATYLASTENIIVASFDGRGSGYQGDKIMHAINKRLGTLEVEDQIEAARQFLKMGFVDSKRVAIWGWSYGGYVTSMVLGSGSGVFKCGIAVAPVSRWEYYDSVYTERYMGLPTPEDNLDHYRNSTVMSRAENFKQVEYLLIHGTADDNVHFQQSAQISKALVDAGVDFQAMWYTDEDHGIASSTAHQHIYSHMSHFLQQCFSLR
Experimental: The DPP4 inhibitor AB192 (bis(4-acetamidophenyl)-1-(S)-prolylpyrrolidine-2-(R,S)-phosphonate) (J. Med. Chem., 1999, 42:1041-52) was kindly provided by Ingrid De Meester (University of Antwerp, Campus Drie Eiken, Department of Pharmaceutical Sciences, Universiteitsplein 1, B-2610 Wilrijk-Antwerpen). AB192, an irreversible inhibitor of DPP4, was used at 0.32, 1.00 and 3.2 mg/kg body weight. The control inhibitor (Contr.In.) was used at 0.3, 1.0 and 3.0 mg/kg body weight. Eight week old Wistar rats (315-320 g body weight) received either of the inhibitors (8 animals for each inhibitor concentration of each inhibitor) or were treated with vehicle (50 mM sodium phosphate buffer; pH 7.4) (4 animals). The rats received the inhibitors or vehicle by subcutaneous injection into the fat tissue of the neck using a 27-G needle. Blood samples (100 μl) for DPP4 activity measurements were drawn from the tail vein before injection and at the end of the experiment 1 h after injection of the DPP4 inhibitors. At this point, the rats were anaesthetised using a mixture of ketamin (9 mg/100 g body weight) and rompun (0.2 mg/100 g body weight). Additionally, rats received a short burst of ether for quick anaesthesia. The thorax was opened immediately and 4 to 6 ml of blood taken from the right ventricle into ethylenediaminetetraacetic acid (EDTA) laminated syringes and transferred into a 15 ml tube filled with EDTA at a final concentration of 2.5 mg/ml.
Rat blood samples were consecutively centrifuged at room temperature for 10 min at 2000×g and for 15 min at 2500×g. The resulting platelet poor plasma was stored at −80° C. until analysis. For reduction of the protein load of the plasma, the plasma sample was diluted 1:4 with 8 M guanidinium chloride solution at room temperature and for quality control purposes a peptide standard mix was added resulting in a final concentration of 300 to 800 pM of each individual standard peptide added. The peptides added were: substance P, somatostatin-14, neurotensin, renin substrate (porcine), adrenocorticotropic hormone (ACTH)(1-17), big endothelin-1(19-38), ACTH(18-39), beta-Endorphin(6-31), adrenocorticotropic hormone(1-24), calcitonin (human), insulin B chain oxide (bovine), ACTH(7-38), pro34-neuropeptide Y (porcine) and growth hormone-releasing factor (GRF)(1-44). All Peptides or proteins represent the human sequence, if not indicated to the contrary and the numbers in brackets following some of the peptides indicate the amino acid positions of the complete sequence including said peptide. Prior to use, the ultrafiltration devices are rinsed with distilled water. Ultrafiltration was done using Amicon Ultra filter devices with a molecular weight cut-off of 50 kDa (Millipore, Bedford, USA), which were centrifuged according to the manufacturer's instructions at 4000×g for 60 min at room temperature in a swinging bucket rotor. Finally, the pH of the filtrate was adjusted to pH 2 to 3 using concentrated HCl (30% v/v). If the sample (filtrate) was not directly further processed, it was stored at −80° C. A 750 μl-equivalent of plasma was used per chromatographic run.
The separation of peptides and/or proteins was done using a Source 5RPC, 4,6×150 mm reverse phase chromatography column (Amersham Biosciences Europe GmbH, Freiburg, Germany). Buffer A was 0.06% (v/v) (volume per volume) trifluoroacetic acid (TFA) in distilled water and buffer B was 0.05% (v/v) TFA, 80% (v/v) acetonitrile in distilled water. The chromatography took place at 33° C. using a HP 1100 HPLC with a micro flow cell both supplied by Agilent Technologies, Böblingen, Germany. The samples were diluted to 5.5 ml using a 0.1% (v/v) stock solution of trifluoroacetic acid. Prior to chromatography, the samples were centrifuged at 4° C. and 15 000×g for 10 minutes and finally 5 ml of sample were loaded onto the chromatography column representing an equivalent of 750 μl plasma. […]

DPP4 [2] = target: T1, DPP4; assay: Panels of pairs of peptides/proteins (linear model): correlation to inhibitor concentration or to decreased DPP4 activity; conditions: for Correlation coefficient of Panel 1 + 2: panel of both peptides/proteins; for Correlation coefficient of Pep./Prot. 1: single peptide/protein 1 of the panel; for Correlation coefficient of Pep./Prot. 2: single peptide/protein 2 of the panel
Experimental: In addition, networks of peptides and/or proteins were calculated. This allows, for example, to identify panels of peptides and/or proteins, which enable to better reflect the biological impact of the inhibitors (FIG. 5/Table 2). Combining two peptides and/or proteins in these panels increased the reliability of the prediction (e.g. concentration of inhibitor, “before/after change in DPP4 activity”) possible by evaluating these peptide/protein panels. These panels were determined by comprehensively combining peptide and/or protein signals to pairs of peptide and/or protein signals. In a “linear model”, the signal intensities of the peptide and/or protein pairs were treated as independent variables, and the endpoint DPP4 concentration (or change in DPP4 activity) was treated as the dependent variable. The “linear model” was then calculated (e.g. with R-package, version 2.00 (R Foundation for Statistical Computing, Vienna, Austria) or S-plus, version 6.0 (Insightful AG, Reinach, Switzerland), etc.).
In addition to panels of peptides and/or proteins, surrogate networks of peptides and/or proteins can also be predicted, which peptides and/or proteins can replace each other, i.e. the peptides and/or proteins are surrogates of each other. Using this method it is, for example, possible to identify peptides and/or proteins which have the same diagnostic value. […] In addition, it is possible to choose those peptides and/or proteins of a surrogate network, which can be measured with the least effort. Both strategies can be combined to save time, resources, valuable or limited patient samples, etc. For determining these surrogate networks and peptide and/or protein panels, methods such as the methods described in PCT/EP 2005/000090 can be used.

DPP4 [3] = target: T1, DPP4; assay: DPP4 activity in plasma of rats injected with DPP4 inhibitors (G-P-4 nitroanilide substrate, 405 nm); conditions: Wistar rats, s.c., 0.3-3.2 mg/kg, 1 h after injection; FIG. 2
Experimental: The DPP4 inhibitor AB192 (bis(4-acetamidophenyl)-1-(S)-prolylpyrrolidine-2-(R,S)-phosphonate) (J. Med. Chem., 1999, 42:1041-52) was kindly provided by Ingrid De Meester (University of Antwerp, Campus Drie Eiken, Department of Pharmaceutical Sciences, Universiteitsplein 1, B-2610 Wilrijk-Antwerpen). AB192, an irreversible inhibitor of DPP4, was used at 0.32, 1.00 and 3.2 mg/kg body weight. The control inhibitor (Contr.In.) was used at 0.3, 1.0 and 3.0 mg/kg body weight. Eight week old Wistar rats (315-320 g body weight) received either of the inhibitors (8 animals for each inhibitor concentration of each inhibitor) or were treated with vehicle (50 mM sodium phosphate buffer; pH 7.4) (4 animals). The rats received the inhibitors or vehicle by subcutaneous injection into the fat tissue of the neck using a 27-G needle. […]
Blood samples taken from the tail vein were immediately centrifuged (2000×g; 10 min at room temperature) and plasma stored at −20° C. […] The 96-well plate was read immediately using a Tecan Genios microplate reader (Tecan Deutschland GmbH, Crailsheim, Germany) and measurements were taken at 37° C. over a period of time of 1 h at a wavelength of 405 nm. From the measured values the blank signal (plasma+HEPES buffer) was subtracted and data calculated as Units/litre (U/l). […]

[4] = with concentration of AB (AB192 inhibitor)
[5] = with DPP4 activity in presence of AB (AB192 inhibitor)
[6] = with concentration of AB and Contr.In.

PPGPPGPPGPPGPPS [Peptide/Protein No. 3]
Correlation of mass spectrometric signal with concentration of inhibitor Contr.In. C (DPP4 [1]; Spearman, concentration of control inhibitor, but not of AB192, n=27, |r|>0.61, rat plasma): pos.
correlation of mass spectrometric signal with the amount of control inhibitor (Contr.In.) given to the rat (DPP4 [1]; rat plasma, FIG. 4A): positively
Correlation coefficient of Panel 1 + 2 (DPP4 [2]; [4]): 0.66
Correlation coefficient of Pep./Prot. 1 (DPP4 [2]; [4]): −0.44
Correlation coefficient of Pep./Prot. 2 (DPP4 [2]; [4]): 0.48

CC(=O)Nc1ccc(OP(=O)(Oc2ccc(NC(C)=O)cc2)C2CCCN2C(=O)[C@@H]2CCCN2)cc1 (stereo partly drawn) [AB192, bis(4-acetamidophenyl)-1-(S)-prolylpyrrolidine-2-(R,S)-phosphonate]
DPP4 activity in plasma (DPP4 [3]): inhibited the activity of DPP4 in vivo in rats in a dose dependent manner; also recorded: inhibit DPP4 activity in vivo in a dose-dependent manner

GAPGQNGEPGAKGERGAPGEKGEGGPPG [Peptide/Protein No. 45]
Correlation of mass spectrometric signal with DPP4 inhibition by Contr.In. F (DPP4 [1]; Spearman, before/after change in DPP4 activity with control inhibitor, but not AB192, n=31, |r|>0.61, rat plasma): neg.
correlation of mass spectrometric signal with the DPP4 activity measured in the same samples (DPP4 [1]; plasma of rats treated with control inhibitor (Contr.In.), FIG. 3A, 4B): negatively
Correlation coefficient of Panel 1 + 2 (DPP4 [2]; [5]): 0.54
Correlation coefficient of Pep./Prot. 1 (DPP4 [2]; [5]): −0.38
Correlation coefficient of Pep./Prot. 2 (DPP4 [2]; [5]): −0.4

LPGPPGERGGPGSRGFPGADGVAGP [Peptide/Protein No. 2]
Correlation of mass spectrometric signal with concentration of inhibitor AB & Contr.In. A (DPP4 [1]; Spearman, correlates with concentration of AB192 and of control inhibitor, n=49, |r|>0.5, rat plasma 1 h after s.c. injection): pos.
correlation of mass spectrometric signal with the amount of the DPP4 inhibitor AB192 or the control inhibitor given to the rat (DPP4 [1]; rat plasma, FIG. 3B): positively
Correlation coefficient of Panel 1 + 2 (DPP4 [2]; [6]): 0.59
Correlation coefficient of Pep./Prot. 1 (DPP4 [2]; [6]): −0.52
Correlation coefficient of Pep./Prot. 2 (DPP4 [2]; [6]): −0.52
